Data taken from patent US10221125B2, “Solid forms” (Oryzon Genomics, S.A., priority 2015, dated 2019).
Where a name gives a salt, the structure may show the parent alone. Each block holds one compound with its values, some of them ahead of it.

What was measured:
Format in all cases: physicochemical
[1] = Stability of the di-hydrochloric acid salt (decomposition, release of HCl)
[2] = Hygroscopicity (mass increase when relative humidity is raised from 0% rH to 90% rH); conditions: increase in mass
Source text: The term “hygroscopicity” describes the ability of a solid material to adsorb moisture. The hygroscopicity of a given API is characterized [European Pharmacopoeia—6th Edition (2008), Chapter 5.11) by the increase in mass when the relative humidity is raised from 0% rH to 90% rH: • non-hygroscopic: weight increase Δm<0.2%; • slightly hygroscopic: weight increase 0.2%≤Δm<2.0%; • hygroscopic: weight increase 2.0%≤Δm<15.0%; • very hygroscopic: weight increase Δm≥15.0%; • a deliquescent: sufficient water is adsorbed to form a liquid.

[3] = Long-term incubation/storage at elevated temperature or elevated humidity (phase change)
[4] = Thermal behaviour on heating/cooling (temperature controlled XRPD)
Procedure: For temperature controlled XRPD measurements, the sample was placed without further processing (e.g. grinding or sieving) in a quartz glass capillary of 1 mm diameter and sealed. Measurements were performed with a STOE high-/low-temperature extension (temperature range −50° C. to 300° C.) with am NiCr/Ni-thermal element at a ramp rate of 5° C. per minute, temperature steps every 5° C., 30 minutes measuring time per step, […]

[5] = Long term equilibration slurry experiments (polymorph stability)

SMILES: N[C@H]1CC[C@H](N[C@@H]2C[C@H]2c2ccccc2)CC1 [(trans)-N1-((1R,2S)-2-phenylcyclopropyl)cyclohexane-1,4-diamine di-hydrochloride]
stability of di-hydrochloric acid salt (decomposition to mono-hydrochloride, release of corrosive hydrochloric acid) [1]: does not decompose and release corrosive hydrochloric acid

phase change to Form B on long term storage ([3]; increased humidity, e.g. 100% rH): does not induce a phase change to Form B
SMILES: N[C@H]1CC[C@H](N[C@@H]2C[C@H]2c2ccccc2)CC1 [Form A, (trans)-N1-((1R,2S)-2-phenylcyclopropyl)cyclohexane-1,4-diamine di-hydrochloride]
hygroscopicity [2]: slightly hygroscopic (slightly hygroscopic: weight increase 0.2%≤Δm<2.0%)

decomposition temperature ([4]; on heating, di-hydrochloride): above 210 °C | stability as compared to Form A [3]: substantially increased | phase change during long-term incubation ([3]; elevated temperature or elevated humidity, even at 100% rH): no phase-change is observed | polymorph stability ranking [5]: most stable polymorph
SMILES: N[C@H]1CC[C@H](N[C@@H]2C[C@H]2c2ccccc2)CC1 [Form B, (trans)-N1-((1R,2S)-2-phenylcyclopropyl)cyclohexane-1,4-diamine di-hydrochloride]
hygroscopicity [2]: slightly hygroscopic (slightly hygroscopic: weight increase 0.2%≤Δm<2.0%) | formation of Form C upon heating ([4]; heating of Form B): cannot be prepared upon heating of Form B

polymorph stability description [4]: unstable high-temperature polymorph
SMILES: N[C@H]1CC[C@H](N[C@@H]2C[C@H]2c2ccccc2)CC1 [Form C, (trans)-N1-((1R,2S)-2-phenylcyclopropyl)cyclohexane-1,4-diamine di-hydrochloride]
